The source of these data is patent US20140154264A1, “COMPOSITIONS AND METHODS FOR TREATING CANCER AND DISEASES AND CONDITIONS RESPONSIVE TO CELL GROWTH INHIBITION” (THE REGENTS OF THE UNIVERSITY OF CALIFORNIA, priority 2011, published 2014).

For data set [1], the system named is H441 human lung adenocarcinoma orthotopic tumors. The data set is described as follows: orthotopic lung cancer xenograft model. It counts as in vivo, mice. As to conditions: systemic erlotinib for 7-8 weeks. The text has this:
(§1) The longer cells were exposed to erlotinib the greater the expression level of αvβ3 was observed, FIG. 26b. […] Thus, exposure of histologically distinct tumor cells in vitro or in vivo to EGFR inhibitors selects for a tumor cell population expressing high levels of αvβ3.
(a) Flow cytometric quantification of cell surface markers after 3 weeks treatment with erlotinib (pancreatic and colon cancer cells) or lapatinib (breast cancer cells). (b) Flow cytometric analysis of αvβ3 expression in FG and Miapaca-2 cells following erlotinib. Error bars represent s.d. (n=3 independent experiments). […] Bottom, Integrin αvβ3 expression was quantified as ratio of integrin αvβ3 pixel area over nuclei pixel area using Metamorph (*P=0.049 using Mann-Whitney U test). […] Results are expressed as % tumor weight compared to vehicle control. *P<0.05.
Immunostaining was performed according to the manufacturer's recommendations (Vector Labs) on […] sections of paraffin-embedded tumors from the orthotopic xenograft pancreas and lung cancer mouse models^14 or from a metastasis tissue array purchased from US Biomax (MET961). […] Sections stained with integrin β3 and active Ral were scored by a H-score according to the staining intensity (SI) on a scale 0 to 3 within the whole tissue section.

In data set [2] the test system is PANC-1 cells. The data set is described as follows: tumor sphere formation assay. The data set is classed as cell-based, human. The settings on record: αvβ3 knockdown vs control. The text has this:
(§2) In all cases, β3 expressing tumor cells were intrinsically more resistant to EGFR blockade than β3-negative tumor cell lines (FIG. 26e).
(a) Flow cytometric quantification of cell surface markers after 3 weeks treatment with erlotinib (pancreatic and colon cancer cells) or lapatinib (breast cancer cells). (b) Flow cytometric analysis of αvβ3 expression in FG and Miapaca-2 cells following erlotinib. Error bars represent s.d. (n=3 independent experiments). (c) Top, immunofluorescence staining of integrin αvβ3 in tissue specimens obtained from orthotopic pancreatic tumors treated with vehicle (n=3) or erlotinib (n=4). Scale bar, 50 μm. Bottom, Integrin αvβ3 expression was quantified as ratio of integrin αvβ3 pixel area over nuclei pixel area using Metamorph (*P=0.049 using Mann-Whitney U test). (d) Right, intensity (scale 0 to 3) of β3 expression in mouse orthotopic lung tumors treated with vehicle (n=8) or erlotinib (n=7). Left, immunohistochemical staining of β3. Scale bar, 100 μm. […] (f) Tumor sphere formation assay to establish a dose-response for erlotinib. Error bars represent s.d. (n=3 independent experiments). […] Results are expressed as % tumor weight compared to vehicle control. *P<0.05.
Tumor spheres formation assays were performed essentially as described previously^17. […] Colonies were stained with crystal violet and scored with an Olympus SZH10 microscope.

The test system of data set [3] is phosphorylated NF-κB. Put plainly: immunoblot analysis of cells grown in suspension and treated with erlotinib. The settings on record: erlotinib 0.5 μM. The data set is classed as cell-based, human. The procedure:
(§3) In addition, it has been shown that NF-κB signaling is essential for KRAS-driven tumor growth and resistance to EGFR blockade^27-29. This prompted us to ask whether αvβ3 could regulate NF-κB activity through RalB activation and thereby promote tumor cell resistance to EGFR targeted therapy. To test this, tumor cells expressing or lacking integrin αvβ3 and/or RalB were grown in the presence or absence of erlotinib and lysates of these cells were analyzed for activated downstream effectors of RalB. […] NF-κB activity was sufficient to account for EGFR inhibitor resistance since ectopically expressed a constitutively active NF-κB (S276D) in β3-negative FG pancreatic tumor cells^30 conferred resistance to EGFR inhibition, see FIG. 29b). […] Together, our studies describe a role for αvβ3 mediating resistance to EGFR inhibition via RalB activation and its downstream effector NF-κB, opening new avenues to target tumors that are resistant to EGFR targeted therapy, see FIG. 29e.
(§4) Immunoblot analysis of FG, FG-β3 and FG-β3 stably expressing non-silencing or RalB-specific ShRNA, grown in suspension and treated with erlotinib (0.5 μM). pTBK1 refers to phospho-S172 TBK1, p-p65 NF-κB refers to phospho-p65 NF-κB S276, pFAK refers to phospho-FAK Tyr 861. Data are representative of three independent experiments. (b) Tumor spheres formation assay of FG cells ectopically expressing vector control, WT NF-κB FLAG tagged or constitutively active S276D NF-κB FLAG tagged constructs treated with erlotinib (0.5 μM). Error bars represent s.d. (n=3 independent experiments). *P<0.05, **P<0.001, NS=not significant. Immunoblot analysis showing NF-κB WT and S276D NF-κB FLAG transfection efficiency. (c) Tumor spheres formation assay of FG-β3 treating with non-silencing (shCTRL) or NF-κB-specific shRNA and exposed to erlotinib (0.5 μM). Error bars represent s.d. (n=3 independent experiments). *P<0.05, NS=not significant. (d) Dose response in FG-β3 cells treated with erlotinib (10 nM to 5 μM), lenalidomide (10 nM to 5 μM) or a combination of erlotinib (10 nM to 5 μM) and lenalidomide (1 μM). Error bars represent s.d. (n=3 independent experiments). *P<0.05, NS=not significant. (e) Model depicting the integrin αvβ3-mediated EGFR TKI resistance and conquering EGFR TKI resistance pathway and its downstream RalB and NF-κB effectors.
(§5) Cells were lysed in either RIPA lysis buffer (50 mM Tris pH 7.4, 100 mM NaCL, 2 mM EDTA, […], 10% Triton, 0.1% SDS) or Triton lysis buffer (50 mM Tris pH 7.5, 150 mN NaCl, 1 mM EDTA, 5 mM MgCl2, 10% Glycerol, 1% Triton) supplemented with complete protease and phosphatase inhibitor mixtures (Roche) and centrifuged at 13,000 g for 10 min at 4° C. Protein concentration was determined by BCA assay. […]
(A western blot detects proteins with antibodies after separation by electrophoresis.)

Data set [4] deals with phosphorylated TBK1. Described as above. It counts as cell-based, human. As to conditions: erlotinib 0.5 μM. The procedure:
as §3, §4, §5

In data set [5] the test system is FG and FG-β3 cells. The data set is described as follows: tumor sphere formation assay. The data set is classed as cell-based, human. As to conditions: for effect of αvβ3 expression on drug resistance: in vitro, FG cells lacking vs expressing αvβ3. The procedure: (n=3 independent experiments); as discussed in detail in Example 1, below.
Therefore, we examined whether αvβ3 expression also promotes resistance to other growth factor inhibitors and/or cytotoxic agents.
as §4, with “Data are representative of three independent experiments. (b) Tumor spheres formation assay of FG cells ectopically expressing vector control, WT NF-κB FLAG tagged or constitutively active S276D NF-κB FLAG tagged constructs treated with erlotinib (0.5 μM).” left out, “significant.” for “significant. (e) Model depicting the integrin αvβ3-mediated EGFR TKI resistance and conquering EGFR TKI resistance pathway and its downstream RalB and NF-κB effectors.”
Tumor spheres formation assays were performed essentially as described previously^17. Briefly, cells were seeded at 1000 to 2000 cells per well and grown for 12 days to 3 weeks. Cells were treated with vehicle (DMSO), erlotinib (10 nM to 5 μM), lapatinib (10 nM to 5 μM), gemcitabine (0.001 nM to 5 μM), OSI-906 (10 nM to 5 μM), lenalidomide (10 nM to 5 μM), or cisplatin (10 nM to 5 μM), diluted in DMSO. The media was replaced with fresh inhibitor every day for erlotinib, lapatinib, lenalidomide and 3 times a week for cisplatin and gemcitabine. Colonies were stained with crystal violet and scored with an Olympus SZH10 microscope. Survival curves were generated at least with five concentration points.

Data set [6] deals with orthotopic FG pancreatic tumors. The data set is described as follows: orthotopic pancreas cancer xenograft model. The data set is classed as in vivo, mice.
From the text: as §1, §2
(a) Flow cytometric quantification of cell surface markers after 3 weeks treatment with erlotinib (pancreatic and colon cancer cells) or lapatinib (breast cancer cells). (b) Flow cytometric analysis of αvβ3 expression in FG and Miapaca-2 cells following erlotinib. Error bars represent s.d. (n=3 independent experiments). (c) Top, immunofluorescence staining of integrin αvβ3 in tissue specimens obtained from orthotopic pancreatic tumors treated with vehicle (n=3) or erlotinib (n=4). Scale bar, 50 μm. Bottom, Integrin αvβ3 expression was quantified as ratio of integrin αvβ3 pixel area over nuclei pixel area using Metamorph (*P=0.049 using Mann-Whitney U test). (d) Right, intensity (scale 0 to 3) of β3 expression in mouse orthotopic lung tumors treated with vehicle (n=8) or erlotinib (n=7). Left, immunohistochemical staining of β3. Scale bar, 100 μm. […] Results are expressed as % tumor weight compared to vehicle control. *P<0.05. […]

Data set [7] has as its target avb5 (Homo sapiens, UniProt P06756+P18084). The data set is described as follows: cell-free integrin binding assay.
For data set [8], the system named is C-RAF S338 phosphorylation. The data set is described as follows: C-RAF S338 phosphorylation in brain tumors. The data set is classed as in vivo. As to conditions: mouse orthotopic model. An excerpt: (§6) These events are associated with reduced cell proliferation in vitro and tumor regression in vivo.
For data set [9], the system named is orthotopic GBM tumors. The data set is described as follows: orthotopic brain tumor mouse model. The data set is classed as in vivo.
In data set [10] the test system is angiogenesis and tumor growth. Put plainly: angiogenesis and tumor growth in vivo.
In data set [11] the test system is G2/M progression. Put plainly: G2/M progression after cilengitide treatment. The data set is classed as cell-based.
Data set [12] concerns the target avb3 (Homo sapiens, UniProt P05106+P06756). Put plainly: cell-free integrin binding assay.
For data set [13], the system named is patients with cancer. The data set is described as follows: cancer patient studies. It counts as in vivo, human. The settings on record: various patients with cancer.
For data set [14], the system named is C-RAF Ser338. The data set is described as follows: C-RAF Ser338 phosphorylation in human glioblastoma cell lines. It counts as cell-based.
From the text: as §6

Like-named read-outs stand apart in the source and are kept apart here.

Chain of avb3 (P06756 31-889 limits assumed): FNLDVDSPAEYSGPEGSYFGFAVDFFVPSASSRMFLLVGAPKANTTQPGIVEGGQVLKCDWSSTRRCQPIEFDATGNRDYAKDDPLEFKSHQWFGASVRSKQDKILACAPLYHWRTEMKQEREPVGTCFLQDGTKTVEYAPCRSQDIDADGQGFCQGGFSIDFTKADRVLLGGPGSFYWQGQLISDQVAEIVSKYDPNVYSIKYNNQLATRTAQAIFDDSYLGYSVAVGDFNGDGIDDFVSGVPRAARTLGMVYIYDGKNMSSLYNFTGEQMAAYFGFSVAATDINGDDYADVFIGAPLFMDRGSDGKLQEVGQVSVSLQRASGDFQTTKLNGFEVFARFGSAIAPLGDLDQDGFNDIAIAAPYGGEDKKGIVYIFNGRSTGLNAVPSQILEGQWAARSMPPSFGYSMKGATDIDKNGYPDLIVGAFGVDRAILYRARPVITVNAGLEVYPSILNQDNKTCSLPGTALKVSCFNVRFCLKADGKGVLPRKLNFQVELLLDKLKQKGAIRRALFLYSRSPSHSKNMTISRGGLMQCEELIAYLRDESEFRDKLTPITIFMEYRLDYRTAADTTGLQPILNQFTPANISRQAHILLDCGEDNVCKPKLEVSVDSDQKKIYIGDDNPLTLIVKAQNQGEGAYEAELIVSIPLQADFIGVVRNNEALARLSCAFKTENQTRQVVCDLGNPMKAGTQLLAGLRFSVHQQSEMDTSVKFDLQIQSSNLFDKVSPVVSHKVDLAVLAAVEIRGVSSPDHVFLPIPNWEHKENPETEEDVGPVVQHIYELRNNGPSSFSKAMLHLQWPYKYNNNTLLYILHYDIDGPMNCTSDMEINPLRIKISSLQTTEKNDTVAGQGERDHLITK
Chain of avb3 (P06756 891-1048 limits assumed): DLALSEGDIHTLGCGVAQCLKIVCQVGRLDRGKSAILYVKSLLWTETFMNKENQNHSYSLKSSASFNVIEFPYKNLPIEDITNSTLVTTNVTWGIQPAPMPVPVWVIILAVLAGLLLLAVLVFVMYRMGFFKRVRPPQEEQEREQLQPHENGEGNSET
Chain of avb3 (P05106 27-788): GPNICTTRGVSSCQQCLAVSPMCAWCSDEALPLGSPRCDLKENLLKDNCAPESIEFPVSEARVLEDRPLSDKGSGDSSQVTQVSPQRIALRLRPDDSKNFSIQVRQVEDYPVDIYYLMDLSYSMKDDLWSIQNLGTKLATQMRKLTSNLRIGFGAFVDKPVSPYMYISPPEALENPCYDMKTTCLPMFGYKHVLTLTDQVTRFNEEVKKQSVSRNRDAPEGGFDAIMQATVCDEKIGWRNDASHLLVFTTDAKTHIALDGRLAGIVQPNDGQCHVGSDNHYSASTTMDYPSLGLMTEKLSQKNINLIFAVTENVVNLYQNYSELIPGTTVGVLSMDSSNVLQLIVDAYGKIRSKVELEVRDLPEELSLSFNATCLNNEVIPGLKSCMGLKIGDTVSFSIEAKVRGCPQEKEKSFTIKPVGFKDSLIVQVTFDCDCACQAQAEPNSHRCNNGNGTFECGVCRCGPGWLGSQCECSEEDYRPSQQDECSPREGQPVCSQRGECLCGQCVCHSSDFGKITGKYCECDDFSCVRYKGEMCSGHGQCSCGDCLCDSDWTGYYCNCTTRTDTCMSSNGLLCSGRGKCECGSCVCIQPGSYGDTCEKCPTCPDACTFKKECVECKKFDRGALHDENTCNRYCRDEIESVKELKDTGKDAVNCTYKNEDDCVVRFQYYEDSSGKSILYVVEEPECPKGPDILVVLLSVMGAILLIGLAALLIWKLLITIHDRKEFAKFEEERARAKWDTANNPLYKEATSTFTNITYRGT
Chain of avb5 (P06756 31-889 limits assumed): as the sequence (P06756 31-889 limits assumed) above
Chain of avb5 (P06756 891-1048 limits assumed): as the sequence (P06756 891-1048 limits assumed) above
Chain of avb5 (P18084 24-799): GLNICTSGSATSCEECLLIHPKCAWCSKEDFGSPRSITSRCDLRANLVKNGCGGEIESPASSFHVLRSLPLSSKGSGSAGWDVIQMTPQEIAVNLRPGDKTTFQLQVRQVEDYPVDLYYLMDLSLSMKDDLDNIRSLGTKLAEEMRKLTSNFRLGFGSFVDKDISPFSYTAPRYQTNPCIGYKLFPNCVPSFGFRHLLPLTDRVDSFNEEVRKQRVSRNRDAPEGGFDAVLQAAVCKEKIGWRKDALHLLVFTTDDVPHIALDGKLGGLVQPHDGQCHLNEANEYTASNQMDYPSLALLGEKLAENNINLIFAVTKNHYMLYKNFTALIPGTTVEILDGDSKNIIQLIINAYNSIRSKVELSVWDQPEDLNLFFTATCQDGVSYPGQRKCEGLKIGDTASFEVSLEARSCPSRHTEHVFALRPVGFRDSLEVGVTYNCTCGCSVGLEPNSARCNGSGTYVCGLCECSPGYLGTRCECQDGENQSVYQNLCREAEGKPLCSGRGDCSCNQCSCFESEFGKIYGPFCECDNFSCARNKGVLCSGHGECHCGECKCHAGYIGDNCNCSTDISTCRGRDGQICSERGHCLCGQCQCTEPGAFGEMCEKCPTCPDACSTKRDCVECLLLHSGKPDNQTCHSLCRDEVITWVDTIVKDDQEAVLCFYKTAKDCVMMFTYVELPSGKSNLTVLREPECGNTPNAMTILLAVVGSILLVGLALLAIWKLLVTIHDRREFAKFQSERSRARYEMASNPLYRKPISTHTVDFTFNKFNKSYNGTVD

With `C#Cc1cccc(Nc2ncnc3cc(OCCOC)c(OCCOC)cc23)c1` [erlotinib], the “integrin αvβ3 expression compared with vehicle-treated tumors” value in data set [1] is on record as “qualitative increase”. In addition, the “increase in tumor cell sensitivity on knockdown of αvβ3” value in [2] stood at 10 fold. The entries for the “levels of phosphorylated NF-κB” value in data set [3] (αvβ3 negative cells) and in data set [3] (β3-positive cells) were “reduced levels” and “remained activated”, respectively. In addition, the “levels of phosphorylated TBK1” value in data set [4] (αvβ3 negative cells) is “reduced levels”; in [4] (β3-positive cells) it was “remained activated”. The “effect of αvβ3 expression on drug resistance” value (“effect of αvβ3 expression” below) in data set [5] was “dramatically increased erlotinib resistance”. The “erlotinib sensitivity under genetic or pharmacological inhibition of NF-κB” value in [5] (β3-positive cells, FIG. 29d combination with lenalidomide (1 μM)) is on record as “completely restored erlotinib sensitivity”. The “increase in αvβ3 expression” value in [6] (four weeks of erlotinib treatment) is given as 10 fold. Further, the “effect of ectopic expression of αvβ3 on drug resistance” value in data set [6] (orthotopic pancreatic tumors after systemic treatment) was “dramatically increased erlotinib resistance”.

With `Nc1ccn([C@@H]2O[C@H](CO)[C@@H](O)C2(F)F)c(=O)n1` [gemcitabine], the “effect of αvβ3 expression” value in data set [5] was “failed to protect cells”.

For the compound `CC(C)[C@H]1C(=O)N[C@@H](CCCN=C(N)N)C(=O)NCC(=O)N[C@@H](CC(=O)O)C(=O)N[C@H](Cc2ccccc2)C(=O)N1C` [cilengitide], the figures for the “inhibition of ligand binding to integrin avb5” value in [7] and in [7] (listed as EMD 121974) were “inhibit ligand binding” and “potent inhibitor”, respectively. Moreover, the “C-RAF S338 phosphorylation” value in data set [8] was “blocks C-RAF S338 phosphorylation”; in data set [8] (listed as Cilengitide), “prevents the activation/phosphorylation of C-RAF Ser338”. Further, the “orthotopic GBM tumor vascularization and growth” value in [9] (CD31, Ki-67 and TUNEL staining) is “inhibits orthotopic GBM tumor vascularization and growth”. Also, the tumor burden result in data set [9] (GBM tumors implanted in the brain) is recorded as “decreases tumor burden”. Also, the “orthotopic GBM tumor burden” value in [9] (sub-optimal doses of cilengitide and radiation combined) was “synergize to reduce orthotopic GBM tumor burden”. Moreover, the “angiogenesis and tumor growth in vivo” value in data set [10] is “inhibited angiogenesis and tumor growth”. Moreover, the G2/M progression entry in [11] is “blocks G2/M progression”. Besides, the “inhibition of ligand binding to integrin avb3” value in [12] is “inhibit ligand binding”; in data set [12] (listed as EMD 121974), “potent inhibitor”. The “efficacy in cancer patients” value in data set [13] is listed as “potentially efficacious in some patients”. Further, the “toxicity in cancer patients” value in data set [13] is listed as “non-toxic”. The “activation/phosphorylation of C-RAF Ser338” value in [14] was “prevents the activation/phosphorylation of C-RAF Ser338”.

Regarding `N.N.[Cl][Pt][Cl]` [cisplatin], in data set [5], the “effect of αvβ3 expression” value is “failed to protect cells”.

Regarding `C[C@]1(O)C[C@@H](c2nc(-c3ccc4ccc(-c5ccccc5)nc4c3)c3c(N)nccn32)C1` [OSI-906], in data set [5], the “effect of αvβ3 expression” value was “induced resistance”.
